Data set [1] deals with Trypanosoma brucei brucei. The data set can be described thus: Anti-parasitic activity against bloodstream trypomastigote stage of wild-type Trypanosoma brucei brucei Lister 427 after 48 hrs by alamar blue based fluorescence assay. The class given is functional. To be noted: Lister 427, 48 h.
For data set [2], the system named is Trypanosoma brucei brucei. Kind of data set: Anti-parasitic activity against diminazene, pentamidine and melaminophenyl arsenical-resistant bloodstream trypomastigote stage of Trypanosoma brucei brucei B48 harboring TbAT1 deletion mutant after 48 hrs by alamar blue based fluorescence assay. The class given is functional. To be noted: B48, 48 h. On the technique in general: The colour change of resazurin is a common sign of viable cells or microbes.

In data set [3] the test system is Trypanosoma congolense. Kind of data set: Anti-parasitic activity against bloodstream form of Trypanosoma congolense IL3000 after 48 hrs by alamar blue based fluorescence assay. It is filed as functional. The conditions noted are these: IL3000, 48 h.
The test system of data set [4] is Trypanosoma brucei brucei. The data set can be described thus: Trypanocidal activity against bloodstream trypomastigote stage of wild-type Trypanosoma brucei brucei Lister 427 assessed as inhibition of respiration in presence of glycerol. It is filed as functional.
Data set [5] deals with Trypanosoma brucei brucei. Kind of data set: Resistant factor, ratio of EC50 for bloodstream trypomastigote stage of wild-type Trypanosoma brucei brucei Lister 427 assessed as inhibition of respiration in presence of glycerol to EC50 for bloodstream trypomastigote stage of wild-type Trypanosoma brucei brucei Lister 427 assessed as inhibition of respiration in absence of glycerol. It is filed as functional.

Data set [6] in a line: Cytostatic activity against HEK293T cells after 30 hrs by resazurin based fluorimetric assay. The conditions noted are these: human. It is filed as cell-based, HEK-293T.
Data set [7] is described as follows: Cytotoxicity against HEK cells up to 50 uM after 30 hrs by resazurin based fluorimetric assay. The class given is cell-based. The conditions noted are these: human.
The nature of data set [8]: Selectivity index, ratio of CC50 for HEK293T cells to EC50 for bloodstream trypomastigote stage of wild-type Trypanosoma brucei brucei Lister 427. The conditions noted are these: human, read-out: Ratio CC50/EC50. It is filed as toxicity.
Data set [9] is described as follows: Selectivity index, ratio of CC50 for HEK293T cells to EC50 for bloodstream form of Trypanosoma congolense IL3000. It is filed as toxicity. The conditions noted are these: human, read-out: Ratio CC50/EC50.
Data set [10] in a line: Resistance factor, ratio of EC50 for diminazene, pentamidine and melaminophenyl arsenical-resistant bloodstream trypomastigote stage of Trypanosoma brucei brucei B48 harboring TbAT1 deletion mutant to EC50 for bloodstream trypomastigote stage of wild-type Trypanosoma brucei brucei Lister 427. It is filed as functional.

SMILES strings stand for the structures.

As to `N=C(N)c1ccc(/N=N/Nc2ccc(C(=N)N)cc2)cc1` [DIMINAZENE], the EC50 in data set [1] turned out to be 0.065 µM; in data set [2], 0.78 µM; in [3], 0.151 µM; in data set [4], 0.063 µM. For the same compound, the “Ratio EC50” value in [5] stood at 0.97.
On to `O=C(OCCCCCCCCCC[P+](c1ccccc1)(c1ccccc1)c1ccccc1)c1ccc(O)cc1O.[Br-]`, for which the EC50 in [1] was 0.0013 µM; in data set [2], 0.0011 µM; in data set [3] it was 0.18 µM; in [4], 0.002 µM. In addition, in data set [6], the CC50 at 30 h stood at 2.33 µM. In [7], the Activity entry is “Non-Toxic”. For the same compound, the selectivity ratio came out at 1770 in data set [8] and 13.2 in data set [9]. Besides, the “Ratio EC50” value came out at 1.26 in [5] and 0.86 in data set [10].
Regarding `N=C(N)c1ccc(OCCCCCOc2ccc(C(=N)N)cc2)cc1` [PENTAMIDINE], the EC50 came to 0.0028 µM in [1], 0.94 µM in [2] and 0.004 µM in data set [4]. In addition, the entries for the “Ratio EC50” value in [5] and in data set [10] were 1.32 and 98, respectively.
`O=C(NO)c1ccc(OCCCCCCCCCC[P+](c2ccccc2)(c2ccccc2)c2ccccc2)cc1O.[Br-]` showed a half-maximal effective concentration (EC50) in data set [1] of 0.2 µM. This compound displayed a CC50 at 30 h in [6] of over 400 µM. Further, the Activity result in data set [7] is “Non-Toxic”. Moreover, in [8], the selectivity ratio is over 2040.
In the case of `O=C(NO)c1ccc(OCCCCCCCC[P+](c2ccccc2)(c2ccccc2)c2ccccc2)cc1O.[Br-]`, the results for the EC50 in [1] and in [3] were 0.4 µM and 27.2 µM, respectively. The CC50 at 30 h in [6] was over 400 µM. Besides, in data set [7], the Activity result is “Non-Toxic”. Further, the selectivity ratio in [8] is over 1000; in data set [9], over 14.7.
Take `O=C(NO)c1ccc(OCCCCCCCCCCCC[P+](c2ccccc2)(c2ccccc2)c2ccccc2)cc1O.[Br-]`: the EC50 in data set [1] was 0.14 µM; in data set [3] it was 46.4 µM; in data set [4], 0.158 µM. The same compound came in with a CC50 at 30 h in data set [6] of over 400 µM. Besides, the Activity entry in data set [7] is “Non-Toxic”. The selectivity ratio in [8] was over 2860; in [9] it was over 8.6. Also, the “Ratio EC50” value in [5] amounted to 1.13.
As to `O=C(OCCCCCCCCCCCC[P+](c1ccccc1)(c1ccccc1)c1ccccc1)c1ccc(O)cc1O.[Br-]`, the EC50 was found to be 0.0012 µM in data set [1], 0.0012 µM in [2], 0.042 µM in data set [3] and 0.0012 µM in [4]. The compound also had a CC50 at 30 h in data set [6] of 1.65 µM. In addition, the Activity result in data set [7] is listed as “Non-Toxic”. Moreover, the selectivity ratio in data set [8] was 1330. Moreover, the “Ratio EC50” value in data set [5] worked out at 1.01; in data set [10] it was 0.96.
Regarding `O=COCCCCCCCCCCOC(=O)c1ccc(O)cc1O`, the 50% effective concentration (EC50) is 31.8 µM in data set [1], 22.1 µM in [2] and over 100 µM in data set [3]. The compound further gave a CC50 at 30 h in data set [6] of over 400 µM. For the same compound, the Activity entry in [7] is recorded as “Non-Toxic”. The selectivity ratio in data set [8] was over 12. Also, in data set [10], the Ratio EC50 stood at 0.69.
As for `O=C(OCCCCCCCCCCCCCCCCBr)c1ccc(O)cc1O`, the concentration giving a half-maximal response (EC50) in data set [1] is 45.7 µM; in [2], 49 µM; in data set [3], over 100 µM. Also, the CC50 at 30 h in data set [6] was over 400 µM. For the same compound, in data set [7], the Activity entry was “Non-Toxic”. For the same compound, in [8], the selectivity ratio was over 9. Moreover, in [10], the Ratio EC50 was determined as 1.07.
For the compound `O=C(OCCCCCCCCCCCCBr)c1ccc(O)cc1O`, the EC50 turned out to be 14.5 µM in data set [1], 14.9 µM in data set [2] and 52.1 µM in data set [3]. The CC50 at 30 h in data set [6] is over 400 µM. For the same compound, the Activity entry in data set [7] is recorded as “Non-Toxic”. Also, the results for the selectivity ratio in data set [8] and in data set [9] were over 28 and over 7.7, respectively. The Ratio EC50 in data set [10] amounted to 1.03.

The term EC50 denotes the concentration at which the effect is half-maximal. As usually defined, the CC50 is the concentration giving 50% cytotoxicity. The low end stands for greater toxicity to the cells, the high end for lower toxicity to the cells.
